This is an account of results in patent US11208412B2 (DAEGU-GYEONGBUK MEDICAL INNOVATION FOUNDATION, priority 2017, dated 2021).

Holding throughout (assay): Kinase selectivity, DiscoverX scanMAX Kinase assay panel (% control)
Common to all, as to type: binding

Assay [1] deals with T1, kinases of the scanMAX Kinase assay panel (Homo sapiens, UniProt P19525).
T1 construct: purchased DiscoverX Co. (contract measurement) scanMAX Kinase assay panel
The following applies: PRKR; 1 uM. Summed up:
(§1)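 Compounds tested at 1 uM against the scanMAX kinase panel. Signal expressed as % control = (compound − positive control)/(DMSO negative control − positive control) × 100, where positive control = 0% and DMSO = 100%; below 35% counted as activity on that kinase.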

Assay [2] addresses T2, kinases of the scanMAX Kinase assay panel (Homo sapiens, UniProt P54753).
T2 construct: purchased DiscoverX Co. (contract measurement) scanMAX Kinase assay panel
T2 sequence (P54753 34-998): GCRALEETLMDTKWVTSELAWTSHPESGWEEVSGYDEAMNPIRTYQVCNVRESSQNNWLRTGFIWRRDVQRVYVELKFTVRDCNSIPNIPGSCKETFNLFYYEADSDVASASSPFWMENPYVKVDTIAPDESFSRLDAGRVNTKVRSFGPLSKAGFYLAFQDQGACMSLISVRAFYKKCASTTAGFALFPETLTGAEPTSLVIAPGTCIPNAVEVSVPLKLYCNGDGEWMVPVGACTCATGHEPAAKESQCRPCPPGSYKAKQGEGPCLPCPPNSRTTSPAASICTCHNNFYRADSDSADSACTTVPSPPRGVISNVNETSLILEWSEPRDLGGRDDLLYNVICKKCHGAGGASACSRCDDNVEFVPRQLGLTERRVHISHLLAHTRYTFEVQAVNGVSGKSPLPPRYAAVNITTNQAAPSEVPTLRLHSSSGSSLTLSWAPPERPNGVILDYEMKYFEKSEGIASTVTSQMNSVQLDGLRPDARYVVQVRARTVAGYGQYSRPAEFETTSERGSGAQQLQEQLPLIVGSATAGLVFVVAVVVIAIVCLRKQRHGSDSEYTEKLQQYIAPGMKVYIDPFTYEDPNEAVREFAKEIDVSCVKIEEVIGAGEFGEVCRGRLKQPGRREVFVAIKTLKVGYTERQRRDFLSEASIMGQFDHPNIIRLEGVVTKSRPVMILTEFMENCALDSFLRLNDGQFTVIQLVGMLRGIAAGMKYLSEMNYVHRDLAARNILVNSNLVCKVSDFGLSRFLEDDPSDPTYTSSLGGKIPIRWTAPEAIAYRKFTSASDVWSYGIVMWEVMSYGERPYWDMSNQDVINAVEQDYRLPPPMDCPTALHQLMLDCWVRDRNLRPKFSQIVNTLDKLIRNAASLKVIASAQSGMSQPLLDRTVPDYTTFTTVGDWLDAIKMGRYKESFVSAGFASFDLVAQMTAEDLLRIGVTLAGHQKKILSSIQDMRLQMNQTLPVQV
The following applies: EPHB3; 1 uM. Summed up:
as §1

In assay [3] the target is T3, kinases of the scanMAX Kinase assay panel (Homo sapiens, UniProt Q16659).
T3 construct: purchased DiscoverX Co. (contract measurement) scanMAX Kinase assay panel
T3 sequence (Q16659 whole entry): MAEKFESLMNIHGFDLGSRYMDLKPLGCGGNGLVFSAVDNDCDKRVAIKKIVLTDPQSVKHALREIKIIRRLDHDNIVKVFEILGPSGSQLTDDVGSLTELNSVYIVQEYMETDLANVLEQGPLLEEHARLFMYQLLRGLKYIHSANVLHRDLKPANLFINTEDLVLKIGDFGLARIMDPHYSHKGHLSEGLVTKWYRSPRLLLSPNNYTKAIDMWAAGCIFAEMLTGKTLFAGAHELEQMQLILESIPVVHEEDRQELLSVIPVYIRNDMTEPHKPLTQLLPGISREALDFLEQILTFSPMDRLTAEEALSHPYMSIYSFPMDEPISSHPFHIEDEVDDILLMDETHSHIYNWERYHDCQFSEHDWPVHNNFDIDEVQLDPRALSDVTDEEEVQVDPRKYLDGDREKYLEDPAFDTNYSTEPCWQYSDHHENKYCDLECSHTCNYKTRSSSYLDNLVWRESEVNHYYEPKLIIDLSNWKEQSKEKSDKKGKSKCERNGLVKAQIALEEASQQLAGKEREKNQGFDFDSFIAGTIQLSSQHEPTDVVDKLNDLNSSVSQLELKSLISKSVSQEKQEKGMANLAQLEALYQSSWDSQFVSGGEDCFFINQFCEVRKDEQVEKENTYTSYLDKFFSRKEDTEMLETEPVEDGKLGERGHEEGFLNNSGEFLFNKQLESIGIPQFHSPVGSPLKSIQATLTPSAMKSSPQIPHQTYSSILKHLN
The settings on record: ERK3; 1 uM. Summed up:
as §1

Assay [4] addresses T4, kinases of the scanMAX Kinase assay panel (Homo sapiens, UniProt Q96Q40).
T4 construct: purchased DiscoverX Co. (contract measurement) scanMAX Kinase assay panel
The following applies: PFTAIRE2; 1 uM. Summed up:
as §1

The target in assay [5] is T5, kinases of the scanMAX Kinase assay panel (Homo sapiens, UniProt P51957).
T5 construct: purchased DiscoverX Co. (contract measurement) scanMAX Kinase assay panel
T5 sequence (P51957 whole entry): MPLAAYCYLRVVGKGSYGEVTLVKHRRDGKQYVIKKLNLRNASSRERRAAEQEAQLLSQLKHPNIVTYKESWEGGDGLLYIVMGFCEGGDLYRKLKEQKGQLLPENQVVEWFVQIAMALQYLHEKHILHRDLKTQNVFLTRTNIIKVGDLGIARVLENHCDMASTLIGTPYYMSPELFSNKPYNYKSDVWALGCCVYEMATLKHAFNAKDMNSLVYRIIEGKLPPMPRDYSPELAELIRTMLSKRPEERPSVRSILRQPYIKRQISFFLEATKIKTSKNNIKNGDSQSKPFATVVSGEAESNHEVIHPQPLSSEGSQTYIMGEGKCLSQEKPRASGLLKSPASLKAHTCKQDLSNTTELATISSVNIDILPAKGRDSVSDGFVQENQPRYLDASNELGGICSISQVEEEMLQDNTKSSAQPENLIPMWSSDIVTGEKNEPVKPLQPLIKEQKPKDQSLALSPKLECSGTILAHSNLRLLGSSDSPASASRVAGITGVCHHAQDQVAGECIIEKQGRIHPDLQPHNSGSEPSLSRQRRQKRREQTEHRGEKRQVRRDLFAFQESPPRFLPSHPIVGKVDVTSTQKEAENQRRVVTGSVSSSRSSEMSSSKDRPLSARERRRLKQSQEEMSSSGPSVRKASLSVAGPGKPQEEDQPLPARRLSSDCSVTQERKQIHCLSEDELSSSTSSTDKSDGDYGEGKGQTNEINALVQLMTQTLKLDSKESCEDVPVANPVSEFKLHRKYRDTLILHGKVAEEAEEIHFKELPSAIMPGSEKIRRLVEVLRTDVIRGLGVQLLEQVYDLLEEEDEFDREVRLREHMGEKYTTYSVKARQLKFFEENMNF
The following applies: NEK4; 1 uM. Summed up: as §1

For assay [6], the target named is T6, kinases of the scanMAX Kinase assay panel (Homo sapiens, UniProt P51817).
T6 construct: purchased DiscoverX Co. (contract measurement) scanMAX Kinase assay panel
T6 sequence (P51817 1-358): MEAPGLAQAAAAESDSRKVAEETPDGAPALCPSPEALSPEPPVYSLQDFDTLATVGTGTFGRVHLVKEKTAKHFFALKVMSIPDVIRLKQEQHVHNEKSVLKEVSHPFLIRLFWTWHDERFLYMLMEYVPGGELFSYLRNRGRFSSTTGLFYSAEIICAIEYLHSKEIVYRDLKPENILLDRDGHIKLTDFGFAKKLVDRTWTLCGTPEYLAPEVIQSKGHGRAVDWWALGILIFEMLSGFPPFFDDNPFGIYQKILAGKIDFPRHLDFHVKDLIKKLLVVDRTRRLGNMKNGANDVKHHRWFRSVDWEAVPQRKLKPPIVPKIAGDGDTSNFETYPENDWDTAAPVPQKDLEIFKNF
The following applies: PRKX; 1 uM. Summed up:
as §1

In assay [7] the target is T7, kinases of the scanMAX Kinase assay panel (Homo sapiens, UniProt P21127).
T7 construct: purchased DiscoverX Co. (contract measurement) scanMAX Kinase assay panel
The following applies: CDC2L1; 1 uM. Summed up:
as §1

Assay [8] addresses T8, kinases of the scanMAX Kinase assay panel (Homo sapiens, UniProt Q9BX84).
T8 construct: purchased DiscoverX Co. (contract measurement) scanMAX Kinase assay panel
The following applies: kinase TRPM6; 1 uM in DMSO. Summed up: as §1

For assay [9], the target named is T9, kinases of the scanMAX Kinase assay panel (Homo sapiens, UniProt Q14164).
T9 construct: purchased DiscoverX Co. (contract measurement) scanMAX Kinase assay panel
T9 sequence (Q14164 1-716): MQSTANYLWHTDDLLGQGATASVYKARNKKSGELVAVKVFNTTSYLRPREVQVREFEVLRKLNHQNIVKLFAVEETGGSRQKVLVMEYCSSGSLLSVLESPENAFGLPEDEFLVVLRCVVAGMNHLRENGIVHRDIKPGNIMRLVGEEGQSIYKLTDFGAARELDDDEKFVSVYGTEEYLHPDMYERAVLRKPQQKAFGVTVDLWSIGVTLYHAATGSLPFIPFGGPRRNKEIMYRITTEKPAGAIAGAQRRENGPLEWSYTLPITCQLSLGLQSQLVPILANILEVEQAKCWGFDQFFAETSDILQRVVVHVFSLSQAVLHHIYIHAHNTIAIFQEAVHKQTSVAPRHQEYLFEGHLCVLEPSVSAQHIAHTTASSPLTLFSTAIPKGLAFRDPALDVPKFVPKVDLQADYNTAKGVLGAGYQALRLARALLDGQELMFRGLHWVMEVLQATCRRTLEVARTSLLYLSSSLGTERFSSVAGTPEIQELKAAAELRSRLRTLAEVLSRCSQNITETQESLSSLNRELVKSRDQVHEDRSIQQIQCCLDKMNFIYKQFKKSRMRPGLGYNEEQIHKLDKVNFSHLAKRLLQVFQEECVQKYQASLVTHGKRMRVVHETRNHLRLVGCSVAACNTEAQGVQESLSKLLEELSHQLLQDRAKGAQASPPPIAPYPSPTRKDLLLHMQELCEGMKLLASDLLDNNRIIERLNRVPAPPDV
The following applies: IKK-epsilon; 1 uM. Summed up: as §1

T4 sequence (Q96Q40 whole entry): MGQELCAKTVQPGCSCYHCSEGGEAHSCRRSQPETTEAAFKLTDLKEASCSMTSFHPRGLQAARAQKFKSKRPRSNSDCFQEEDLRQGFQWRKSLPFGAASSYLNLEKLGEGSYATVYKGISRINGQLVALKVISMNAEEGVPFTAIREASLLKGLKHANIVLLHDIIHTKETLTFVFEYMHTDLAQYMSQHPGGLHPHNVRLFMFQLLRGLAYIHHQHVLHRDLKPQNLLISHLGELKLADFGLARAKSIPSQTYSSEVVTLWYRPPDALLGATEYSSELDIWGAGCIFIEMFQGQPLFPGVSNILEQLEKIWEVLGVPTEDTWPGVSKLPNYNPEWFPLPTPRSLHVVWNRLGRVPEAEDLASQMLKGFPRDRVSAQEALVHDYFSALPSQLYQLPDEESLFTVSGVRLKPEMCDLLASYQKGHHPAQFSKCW
T1 sequence (P19525 whole entry): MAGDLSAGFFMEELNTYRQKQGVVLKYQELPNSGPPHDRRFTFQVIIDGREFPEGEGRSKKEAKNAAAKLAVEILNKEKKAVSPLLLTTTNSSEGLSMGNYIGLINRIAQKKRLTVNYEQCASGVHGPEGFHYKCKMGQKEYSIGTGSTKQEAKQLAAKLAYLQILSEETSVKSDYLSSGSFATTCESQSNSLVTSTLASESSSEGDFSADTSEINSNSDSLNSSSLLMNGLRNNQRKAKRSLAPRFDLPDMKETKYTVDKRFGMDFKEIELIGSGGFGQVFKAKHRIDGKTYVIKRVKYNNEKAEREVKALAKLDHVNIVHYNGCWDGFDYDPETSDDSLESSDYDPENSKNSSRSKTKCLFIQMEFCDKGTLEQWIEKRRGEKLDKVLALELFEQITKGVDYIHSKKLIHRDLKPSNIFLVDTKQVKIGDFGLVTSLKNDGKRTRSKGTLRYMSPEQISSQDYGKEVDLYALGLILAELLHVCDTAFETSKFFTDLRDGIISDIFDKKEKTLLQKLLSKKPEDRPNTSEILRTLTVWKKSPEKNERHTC
T8 sequence (Q9BX84 whole entry): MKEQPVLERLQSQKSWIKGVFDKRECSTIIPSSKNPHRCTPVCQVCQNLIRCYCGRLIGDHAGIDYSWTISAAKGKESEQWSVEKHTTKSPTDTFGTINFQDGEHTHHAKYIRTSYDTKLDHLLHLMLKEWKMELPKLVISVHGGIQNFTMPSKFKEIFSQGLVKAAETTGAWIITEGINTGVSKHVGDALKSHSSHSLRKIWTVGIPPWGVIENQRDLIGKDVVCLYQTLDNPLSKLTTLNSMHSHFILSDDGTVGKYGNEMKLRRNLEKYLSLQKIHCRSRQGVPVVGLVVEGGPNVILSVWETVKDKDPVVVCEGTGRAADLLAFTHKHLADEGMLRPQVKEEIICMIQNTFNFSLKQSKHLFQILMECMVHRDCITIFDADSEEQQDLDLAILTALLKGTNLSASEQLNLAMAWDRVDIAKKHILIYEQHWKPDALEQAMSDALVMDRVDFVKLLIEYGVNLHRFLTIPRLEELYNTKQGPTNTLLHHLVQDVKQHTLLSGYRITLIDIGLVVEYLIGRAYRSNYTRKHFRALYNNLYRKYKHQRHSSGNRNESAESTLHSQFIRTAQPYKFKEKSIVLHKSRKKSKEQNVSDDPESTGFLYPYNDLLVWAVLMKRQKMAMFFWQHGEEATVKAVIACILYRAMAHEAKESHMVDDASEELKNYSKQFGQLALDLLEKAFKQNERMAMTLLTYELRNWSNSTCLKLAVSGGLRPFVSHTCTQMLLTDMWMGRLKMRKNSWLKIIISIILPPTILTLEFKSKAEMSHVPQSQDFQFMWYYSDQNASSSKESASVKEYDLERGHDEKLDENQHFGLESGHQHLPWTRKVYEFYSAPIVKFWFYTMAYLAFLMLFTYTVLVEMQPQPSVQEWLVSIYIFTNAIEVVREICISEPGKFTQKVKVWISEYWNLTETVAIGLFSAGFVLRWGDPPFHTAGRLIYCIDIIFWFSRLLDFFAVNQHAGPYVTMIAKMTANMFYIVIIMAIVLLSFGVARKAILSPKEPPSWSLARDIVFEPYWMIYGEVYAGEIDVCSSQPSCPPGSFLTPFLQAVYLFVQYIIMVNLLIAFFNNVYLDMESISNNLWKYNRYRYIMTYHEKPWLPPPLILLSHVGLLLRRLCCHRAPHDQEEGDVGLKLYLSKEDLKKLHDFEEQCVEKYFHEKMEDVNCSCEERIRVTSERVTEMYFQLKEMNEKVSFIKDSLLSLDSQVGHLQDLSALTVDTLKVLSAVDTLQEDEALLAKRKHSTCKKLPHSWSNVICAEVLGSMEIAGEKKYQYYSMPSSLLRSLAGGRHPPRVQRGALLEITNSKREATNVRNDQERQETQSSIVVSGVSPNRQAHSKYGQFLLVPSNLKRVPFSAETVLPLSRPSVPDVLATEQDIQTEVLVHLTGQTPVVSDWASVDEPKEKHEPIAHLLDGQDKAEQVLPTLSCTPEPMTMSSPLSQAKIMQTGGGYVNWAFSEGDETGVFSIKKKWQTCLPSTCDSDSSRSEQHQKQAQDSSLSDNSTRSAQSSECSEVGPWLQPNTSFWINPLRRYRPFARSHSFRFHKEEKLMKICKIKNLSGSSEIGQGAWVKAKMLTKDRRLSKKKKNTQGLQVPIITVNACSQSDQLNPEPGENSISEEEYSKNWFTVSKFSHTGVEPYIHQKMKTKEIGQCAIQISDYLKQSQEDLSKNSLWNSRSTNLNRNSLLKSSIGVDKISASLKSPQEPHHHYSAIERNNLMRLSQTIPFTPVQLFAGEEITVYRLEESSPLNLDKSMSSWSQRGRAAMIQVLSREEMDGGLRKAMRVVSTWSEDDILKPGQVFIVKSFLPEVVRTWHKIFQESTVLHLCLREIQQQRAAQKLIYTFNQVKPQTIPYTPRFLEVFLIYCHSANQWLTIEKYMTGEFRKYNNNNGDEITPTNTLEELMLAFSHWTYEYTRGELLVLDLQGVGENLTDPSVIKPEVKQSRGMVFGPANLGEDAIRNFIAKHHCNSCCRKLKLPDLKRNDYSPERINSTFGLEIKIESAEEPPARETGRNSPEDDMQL

Consider `CC1(Nc2nc(Nc3cnn([C@H]4CCN(C5COC5)C[C@@H]4F)c3Cl)nc3[nH]cc(C#N)c23)CC1` [Example 52, 2-((5-chloro-1-((3S,4S)-3-fluoro-1-(oxetane-3-yl)piperidine-4-yl)-1H-pyrazole-4-yl)amino)((1-methylcyclopropyl)amino)-7H-pyrrolo[2,3-d]pyrimidine-5-carbonitrile], for which the remaining binding at 1 µM in [1] is 42%; in [2], 95%; in assay [3], 54%; in [4] it was 90%; in assay [5] it was 100%; in assay [6], 89%. Further, the remaining binding at 1 µM is 84% in [7], 93% in [8] and 9.9% in assay [9].
Consider `CCNc1nc(Nc2ccc(C(=O)N3CCC(N4CCOCC4)CC3)cc2OC)nc2[nH]cc(C(F)(F)F)c12` [Example 104, (4-((4-(ethylamino)-5-(trifluoromethyl)-7H-pyrrolo[2,3-d]pyrimidine-2-yl)amino)-3-methoxyphenyl)(4-morpholinopiperidine-1-yl)methanone], for which the remaining binding at 1 µM in assay [1] was determined as 85%; in assay [2] it was 100%; in [3], 95%; in assay [4], 99%; in [5], 100%; in assay [6] it was 81%. For the same compound, the values for the remaining binding at 1 µM in assay [7], in assay [8] and in assay [9] were 99%, 98% and 95%, respectively.
As for `CNc1nc(Nc2ccc(C(=O)N3CCOCC3)cc2OC)nc2[nH]cc(C#N)c12` [Example 1, 2-((2-methoxy-4-(morpholine-4-carbonyl)phenyl)amino)-4-(methylamino)-7H-pyrrolo[2,3-d]pyrimidine-5-carbonitrile], the remaining binding at 1 µM was found to be 95% in [1]; 93% in assay [2]; 89% in assay [3]; 97% in assay [4]; 75% in assay [5]; 82% in [6]. The results for the remaining binding at 1 µM in assay [7], in [8] and in assay [9] were 100%, 88% and 98%, respectively.
